Legend:
FRDA lymphocytes [1] = test: Measurement of cellular ATP concentration (firefly luciferase); assay type: cell-based, human; settings: glucose free media (25 mM galactose), relative to untreated control (FIG. 6)
Experimental: Results are expressed as percentage of total ATP relative to untreated control.
ATP levels in FRDA lymphocytes were measured using firefly luciferase. The cells were grown on glucose-free media supplemented with galactose for 24 h prior to the addition of the test compounds. Since cells grown in galactose rely mostly on oxidative phosphorylation (OX-PHOS) to produce their ATP, they become more sensitive to mitochondrial respiratory chain inhibitors than cells grown in glucose medium.
Measurement of Cellular ATP Concentration
Total ATP levels in FRDA lymphocytes with or without partially blocking complex I activity with rotenone (5 nM) were measured using firefly luciferase as a means to measure ATP level. The cells were grown on glucose-free media supplemented with galactose. Since cells grown in galactose rely mostly on oxidative phosphorylation (OXPHOS) to produce their ATP, they become more sensitive to mitochondria respiratory chain inhibitors than cells grown in glucose medium. Briefly, lymphocytes (2×10^5 cell/mL) were plated (1 mL) in 24-well plates, treated with the test compounds, and then incubated at 37° C. for 48 h in a humidified atmosphere containing 5% CO2 in air. FRDA lymphocytes with partial inhibition of complex I, cells were preincubated with test compounds for overnight before rotenone (5 nM) treatment for 24 h. Cells in each well were mixed and transferred (100 μL) to 96-well microtiter black-walled cell culture plates (Costar, Corning, N.Y.). The total intracellular ATP level was measured in a luminator (Clarity™ luminescence microplate reader) using an ATP Bioluminescence Assay Kit (ViaLight®-Plus ATP monitoring reagent kit, Lonza) following the manufacturer's protocol. The total ATP level was expressed as a percentage of untreated control. Data are reported as the mean of at least three independent experiments.

FRDA lymphocytes [2] = test: Cytotoxicity assay in FRDA lymphocytes cultured in glucose free media (galactose), Live/Dead flow cytometry; assay type: cell-based; settings: FRDA lymphocytes, galactose as sole sugar source, 24 h or 48 h incubation (FIG. 2)
Experimental: Flow cytometric determination of cell viability by fluorescence labeling was used employing calcein acetoxy-methyl-ester and ethidium homodimer-1 as live and dead cell stains
Cytotoxicity was assessed by the dye exclusion method. Live cells have intact membranes, which exclude a variety of dyes that easily penetrate the damaged, permeable membranes of non-viable cells. Propidium iodide, a membrane impermeant dye, is generally excluded from viable cells, although it can enter non-viable cells and bind to double-stranded DNA by intercalating between base pairs. Compounds 1-5 were tested for their cytotoxicity in FRDA lymphocytes using FACS analysis with propidium iodide. The results are depicted in FIG. 2. From the results it is evident that cytotoxicity decreases with increasing lipophilicity in lower as well as higher concentrations for compounds 1-5.
Evaluation of compounds 1-5 for their cytotoxicity and their ability to function within the mitochondrial respiratory chain was carried out by incubation of the prepared compounds for 24 or 48 h with FRDA lymphocytes. A nutrient-sensitized screening strategy has been used by culturing FRDA cells in galactose as the sole sugar source which forces mammalian cells to rely on mitochondrial oxidative phosphorylation (OXPHOS) to produce their ATP; they also become more sensitive to mitochondrial respiratory chain inhibitors than cells grown in glucose medium. Compounds 1-5 were tested for their cytotoxicity in FRDA lymphocytes using a simultaneous staining with a two-color fluorescence assay, the Live/Dead® Viability/Cytotoxicity Kit (Molecular Probes). This assay is used to measure two recognized parameters of cell viability, intracellular esterase activity and plasma integrity. The membrane-impermeant DNA dye ethidium homodimer-1 (EthD-1) was used to identify dead cells whose plasma membrane integrity was disrupted. The membrane-permeant dye calcein-AM was used to label live cells. It penetrates into the cells where it is metabolized by cytoplasmic esterases and becomes a fluorescent but membrane-impermeant probe which is retained in viable cells. One mL of FRDA lymphocyte cells (5×10^5 cells) was plated in a 24-well plate in glucose free media (galactose 25 mM), treated with the test compounds and incubated at 37° C. for 24 h or 48 h in a humidified atmosphere containing 5% CO2 in air. Cells were collected by centrifugation at 300×g for 3 min and washed with phosphate buffered saline. […] The samples were analyzed immediately by flow cytometry (C6 Accuri, BD Biosciences, San Jose, Calif.), using a 488 nm excitation laser and the and the FL1-H channel 530±15 nm emission filter and the FL2-H channel 585±15 nm. For each analysis 10,000 events were recorded and analyzed using C6 Accuri software (BD Biosciences).

[3] = system: FRDA fibroblasts (GM04078); test: Cytoprotection of BSO-treated FRDA fibroblasts, Live/Dead kit; assay type: cell-based, human; settings: overnight preincubation, then BSO (5 mM) 48 h (FIG. 7)
Experimental: Results obtained were verified by running triplicates and repeating experiments in two independent runs.
The ability of test compounds 1-5 to confer cytoprotection to buthionine sulfoximine (BSO)-treated FRDA fibroblasts from oxidative damage-induced death was determined by using simultaneous staining with a two-color fluorescence assay, the Live/Dead® Viability/Cytotoxicity Kit (Molecular Probes, Eugene, Oreg.). The cells were subjected to L-buthionine (S,R)-sulfoximine, an inhibitor of de novo glutathione (GSH) biosynthesis. Oxidative damage-induced death of FRDA fibroblasts was blocked by the test compounds in a concentration dependent manner (FIG. 7). […] The optimal side chain length was 15 carbon atoms.
The ability of the test compounds to confer cytoprotection to BSO-treated FRDA fibroblasts was determined by assessing plasma membrane integrity and intracellular esterase activity using the LIVE/DEAD Viability/Cytotoxicity Kit for mammalian cells according to the manufacturer's protocol. Briefly, FRDA fibroblasts (GM04078) were plated in 96-well microtiter plates at a density of 3000 cell/well (50 μL) (Costar, Corning, N.Y.). The plates were incubated at 37° C. for 24 h in an atmosphere having 95% humidity and 5% CO2 to allow attachment of the cells to the culture plates and to allow the cell density reach 50-60% confluency. The next day the test compounds were dissolved in DMSO, diluted to the appropriate concentrations in fresh cell culture media and the cells were then treated with the test compounds (final DMSO concentration was <0.5%). Plates were incubated at 37° C. overnight in a humidified atmosphere containing 5% CO2 in air. […] Fluorescence intensities were measured with a Spectramax M5 spectrofluorometer (Molecular Devices, Sunnyvale, Calif.) using excitation and emission wavelengths of 485 nm and 525 nm, respectively. […] The viability of non-BSO treated fibroblasts was set as 100%, and the viability of the BSO treated and sample-treated cells was calculated relative to this value. Cell viability was expressed as the percentage of control.

[4] = system: FRDA lymphocyte cells (GM15850); test: Reactive oxygen species (ROS) assay, DCFH-DA, diethyl maleate-treated FRDA lymphocytes; assay type: cell-based, human; settings: 16 h pretreatment, 5 mM diethyl maleate 80 min, DCFH-DA (FIG. 5)
Experimental: The ability of compounds 1-5 to suppress ROS induced by the depletion of cellular glutathione was evaluated in FRDA lymphocytes in a quantitative FACS experiment using dichlorofluorescein diacetate (DCFH-DA) as an indicator of intracellular ROS levels. In cells DCFH-DA is hydrolyzed by esterases to afford 2, 7-dichlorodihydrofluorescein (DCFH). The non-fluorescent DCFH can be oxidized by cellular oxidants generating fluorescent dichlorofluorescein (DCF).
Reactive Oxygen Species (ROS) Assay
Intracellular ROS production was measured in FRDA lymphocyte cells (GM15850, Coriell Cell Repositories, Camden, N.J.) using the oxidant sensitive fluorescent probe 2,7-dichlorodihydrofluorescein diacetate (DCFH-DA) (Molecular Probes) as described previously. […] The samples were analyzed immediately by flow cytometry (C6 Accuri, BD Biosciences, San Jose, Calif.), using a 488 nm excitation laser and the FL1-H channel 530±15 nm emission filter for DCF and FL2-H channel 585±15 nm emission filter for propidium iodide. The generation of ROS, mainly peroxides, was detected as a result of the oxidation of DCFH. In each analysis, 10,000 events were recorded after dead cell and debris were gated out. […] ROS production was evaluated only in living cells which are propidium iodide negative. […] Results were expressed as percentage of ROS scavenging activity or as percentage of the median fluorescence intensity of DCF.

[5] = system: FRDA lymphocytes treated with rotenone (complex I inhibition); test: Cytoprotection of rotenone-treated FRDA lymphocytes; assay type: cell-based, human; settings: 12 h preincubation in glucose-free media, then rotenone (50 nM) 24 h or 48 h (FIG. 3)

Compound | cellular ATP levels (FRDA lymphocytes [1]) | cytotoxicity (FRDA lymphocytes [2]) | cytoprotection from oxidative damage-induced death [3] | suppression of ROS induced by depletion of cellular glutathione [4] | cytoprotection against rotenone cytotoxicity [5]
CCCCN(CCCC)c1ccc2nc3ccc(=O)cc-3sc2c1 [Compound 1, 7-(N,N-Dibutylamino)-3H-phenothiazin-3-one] | reduces cellular ATP levels in all concentrations | somewhat cytotoxic | – | – | –
CCCCCCCCCCN(CCCCCCCCCC)c1ccc2nc3ccc(=O)cc-3sc2c1 [Compound 2, 7-(N,N-Didecylamino)-3H-phenothiazin-3-one] | reduces cellular ATP levels in all concentrations | somewhat cytotoxic | – | – | –
CCCCCCCCCCCCCCCN(CCCCCCCCCCCCCCC)c1ccc2nc3ccc(=O)cc-3sc2c1 [Compound 3, 7-(N,N-Dipentadecylamino)-3H-phenothiazin-3-one] | – | – | the least effective | – | –
CCCCCCCCCCCCCCCN(C)c1ccc2nc3ccc(=O)cc-3sc2c1 [Compound 4, 7-(N-Methyl-N-pentadecylamino)-3H-phenothiazin-3-one] | – | – | better potency than 1 or 2 | more potent and effective in protecting FRDA lymphocytes than the parent compound MV | protect the cells against rotenone cytotoxicity more efficiently than the parent compound MV
CCCCCCCCCCCCCCCN(CCCC)c1ccc2nc3ccc(=O)cc-3sc2c1 [Compound 5, 7-(N-Butyl-N-pentadecylamino)-3H-phenothiazin-3-one] | – | – | better potency than 1 or 2 | more potent and effective in protecting FRDA lymphocytes than the parent compound MV | protect the cells against rotenone cytotoxicity more efficiently than the parent compound MV

Reference: patent publication US11560360B2, “Therapeutic compounds” (ARIZONA BOARD OF REGENTS ON BEHALF OF ARIZONA STATE …, priority 2016, dated 2023)
